According to PubChem BioAssay AID1845212 (Molecular Pharmacology Branch, DTP, NCI, 2023):

System: NCI-H719 tumor spheroids, viability
Test: Anticancer human tumor NCI-H719 cell line growth inhibition;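 note: spheroids exposed to compounds for seven days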;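 for viability, T/C: percent viability relative to DMSO vehicle control as 100%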
Conditions: spheroids with HUVEC and MSC; for IC50: curve of first compound; for viability, T/C: stronger effect = lower value
Outline: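 Complex spheroids of malignant cells with endothelial cells and mesenchymal stem cells; agents alone or combined, from near clinical Cmax (or 10 microM if unknown) down in half-log steps, 0.25% DMSO final.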

[1] = second compound 30 pM, first compound 0.0316 µM
[2] = second compound 30 pM, first compound 0.1 µM
[3] = second compound 30 pM, first compound 0.316 µM
[4] = second compound 30 pM, first compound 1 µM
[5] = second compound 30 pM, first compound 3.16 µM
[6] = second compound 30 pM, first compound 10 µM
[7] = second compound 94.9 pM, first compound 0.0316 µM
[8] = second compound 94.9 pM, first compound 0.1 µM
[9] = second compound 94.9 pM, first compound 0.316 µM
[10] = second compound 94.9 pM, first compound 1 µM
[11] = second compound 94.9 pM, first compound 3.16 µM
[12] = second compound 94.9 pM, first compound 10 µM
[13] = second compound 0.0003 µM, first compound 0.0316 µM
[14] = second compound 0.0003 µM, first compound 0.1 µM
[15] = second compound 0.0003 µM, first compound 0.316 µM
[16] = second compound 0.0003 µM, first compound 1 µM
[17] = second compound 0.0003 µM, first compound 3.16 µM
[18] = second compound 0.0003 µM, first compound 10 µM
[19] = second compound 0.000949 µM, first compound 0.0316 µM
[20] = second compound 0.000949 µM, first compound 0.1 µM
[21] = second compound 0.000949 µM, first compound 0.316 µM
[22] = second compound 0.000949 µM, first compound 1 µM
[23] = second compound 0.000949 µM, first compound 3.16 µM
[24] = second compound 0.000949 µM, first compound 10 µM
[25] = second compound 0.003 µM, first compound 0.0316 µM
[26] = second compound 0.003 µM, first compound 0.1 µM
[27] = second compound 0.003 µM, first compound 0.316 µM
[28] = second compound 0.003 µM, first compound 1 µM
[29] = second compound 0.003 µM, first compound 3.16 µM
[30] = second compound 0.003 µM, first compound 10 µM

| Structure (SMILES) | IC50 (second compound 30 pM) [nM] | IC50 (second compound 94.9 pM) [nM] | IC50 (second compound 0.0003 µM) [nM] | IC50 (second compound 0.000949 µM) [nM] | IC50 (second compound 0.003 µM) [nM] | viability, T/C [1] [%] | viability, T/C [2] [%] | viability, T/C [3] [%] | viability, T/C [4] [%] | viability, T/C [5] [%] | viability, T/C [6] [%] | viability, T/C [7] [%] | viability, T/C [8] [%] | viability, T/C [9] [%] | viability, T/C [10] [%] | viability, T/C [11] [%] | viability, T/C [12] [%] | viability, T/C [13] [%] | viability, T/C [14] [%] | viability, T/C [15] [%] | other results |
| --- | --- | --- | --- | --- | --- | --- | --- | --- | --- | --- | --- | --- | --- | --- | --- | --- | --- | --- | --- | --- | --- |
| CC(C)n1c(=O)n(C)c2cnc3cc(F)c(-c4ccc(OCCCN5CCCCC5)nc4)cc3c21 + COc1cc2c(cc1O)CCNC21CSC2c3c(OC(C)=O)c(C)c4c(c3C(COC1=O)N1C(O)C3Cc5cc(C)c(OC)c(O)c5C(C21)N3C)OCO4 | > 10000 | < 31.6 | < 31.6 | < 31.6 | < 31.6 | 90.9 | 86.2 | 85.7 | 71.2 | 74.3 | 98.8 | 40.8 | 60.5 | 45.5 | 47.9 | 36.5 | 43.7 | 30.1 | 5.76 | 27.8 | viability, T/C [16]: 8.34%; viability, T/C [17]: 8.82%; viability, T/C [18]: 5.34%; viability, T/C [19]: 6.42%; viability, T/C [20]: 7.84%; viability, T/C [21]: 6.99%; viability, T/C [22]: 6.68%; viability, T/C [23]: 5.62%; viability, T/C [24]: 4.34%; viability, T/C [25]: 0.61%; viability, T/C [26]: 1.06%; viability, T/C [27]: 0.76%; viability, T/C [28]: 0.52%; viability, T/C [29]: 0.99%; viability, T/C [30]: 0.68% |
| CC1COCCN1c1cc(-c2ccnn2C)c2ccnc(-c3ccn[nH]3)c2n1 (stereo not given) + COc1cc2c(cc1O)CCNC21CSC2c3c(OC(C)=O)c(C)c4c(c3C(COC1=O)N1C(O)C3Cc5cc(C)c(OC)c(O)c5C(C21)N3C)OCO4 | < 31.6 | < 31.6 | < 31.6 | < 31.6 | < 31.6 | 29 | 19.2 | 16.2 | 9.83 | 8.37 | 11 | 13.6 | 7.91 | 7.75 | 7.08 | 6.07 | 10.4 | 7.42 | 7.97 | 6.18 | viability, T/C [16]: 5.64%; viability, T/C [17]: 6.36%; viability, T/C [18]: 9.31%; viability, T/C [19]: 7.59%; viability, T/C [20]: 7.35%; viability, T/C [21]: 6.11%; viability, T/C [22]: 3.98%; viability, T/C [23]: 3.9%; viability, T/C [24]: 3.4%; viability, T/C [25]: 0.28%; viability, T/C [26]: 0.46%; viability, T/C [27]: 0.86%; viability, T/C [28]: 1.82%; viability, T/C [29]: 0.25%; viability, T/C [30]: 0.52% |
| COc1cc(C)[nH]c(=O)c1CN1CCc2c(Cl)cc(C(OC)C3COC3)c(Cl)c2C1=O (stereo not given) + COc1cc2c(cc1O)CCNC21CSC2c3c(OC(C)=O)c(C)c4c(c3C(COC1=O)N1C(O)C3Cc5cc(C)c(OC)c(O)c5C(C21)N3C)OCO4 | > 10000 | < 31.6 | < 31.6 | < 31.6 | < 31.6 | 91.6 | 85 | 88.3 | 95.7 | 90.9 | 82.9 | 39.9 | 42.6 | 43.9 | 31.1 | 32.4 | 50.6 | 13.2 | 6.14 | 8.15 | viability, T/C [16]: 5.96%; viability, T/C [17]: 6.6%; viability, T/C [18]: 7.13%; viability, T/C [19]: 6.97%; viability, T/C [20]: 6.88%; viability, T/C [21]: 8.11%; viability, T/C [22]: 6.65%; viability, T/C [23]: 6.56%; viability, T/C [24]: 6.23%; viability, T/C [25]: 0.23%; viability, T/C [26]: 0.35%; viability, T/C [27]: 0.34%; viability, T/C [28]: 0.86%; viability, T/C [29]: 0.34%; viability, T/C [30]: 0.93% |
| COc1ccc([C@@H](O)c2cc(-c3ncnc4cc(N5CCOCC5)ccc34)c(F)cc2Cl)nn1 + COc1cc2c(cc1O)CCNC21CSC2c3c(OC(C)=O)c(C)c4c(c3C(COC1=O)N1C(O)C3Cc5cc(C)c(OC)c(O)c5C(C21)N3C)OCO4 | 1110 | < 31.6 | < 31.6 | < 31.6 | < 31.6 | 81.5 | 100 | 75.2 | 52.4 | 22 | 3.59 | 49.7 | 25.2 | 44 | 27.7 | 8.27 | 3 | 13.6 | 8.22 | 10.1 | viability, T/C [16]: 6.05%; viability, T/C [17]: 3.35%; viability, T/C [18]: 1.11%; viability, T/C [19]: 8.53%; viability, T/C [20]: 8.3%; viability, T/C [21]: 7.46%; viability, T/C [22]: 4.41%; viability, T/C [23]: 1.46%; viability, T/C [24]: 0.7%; viability, T/C [25]: 0.57%; viability, T/C [26]: 0.58%; viability, T/C [27]: 0.46%; viability, T/C [28]: 0.68%; viability, T/C [29]: 0.54%; viability, T/C [30]: 0.45% |
| [2H]c1nc(C)nc([2H])c1-c1cc(NC[C@@H](C)c2cccc3c(C(=O)NC)ccnc23)ncn1 + COc1cc2c(cc1O)CCNC21CSC2c3c(OC(C)=O)c(C)c4c(c3C(COC1=O)N1C(O)C3Cc5cc(C)c(OC)c(O)c5C(C21)N3C)OCO4 | > 10000 | < 31.6 | < 31.6 | < 31.6 | < 31.6 | 89.5 | 82.5 | 71.9 | 66.6 | 76.8 | 79.7 | 20.4 | 32.3 | 38.6 | 28.9 | 22.1 | 29.2 | 6.45 | 6.02 | 6.77 | viability, T/C [16]: 8.36%; viability, T/C [17]: 6.88%; viability, T/C [18]: 7.14%; viability, T/C [19]: 7.69%; viability, T/C [20]: 7.59%; viability, T/C [21]: 6.74%; viability, T/C [22]: 6.63%; viability, T/C [23]: 6.53%; viability, T/C [24]: 7.49%; viability, T/C [25]: 0.31%; viability, T/C [26]: 0.58%; viability, T/C [27]: 0.16%; viability, T/C [28]: 0.86%; viability, T/C [29]: 0.13%; viability, T/C [30]: 0.24% |
